Each block holds one molecule with its values, some of them ahead of it. Peptide text beside a SMILES is read from it.
Columns and labels:
[1] = target: T1, cathepsin E (Rattus norvegicus, UniProt P16228); experiment: Cathepsin E protease activity assay (fluorogenic substrate, neutral pH); format: biochemical; settings: 20 nM cathepsin E + 20 nM peptide; for Activity (%), value in parentheses: Table 2, value in parentheses
T1 construct: Cathepsin E was isolated from rat spleens as previously described; from tissue; host or cells: rat spleen
T1 sequence (P16228 59-398): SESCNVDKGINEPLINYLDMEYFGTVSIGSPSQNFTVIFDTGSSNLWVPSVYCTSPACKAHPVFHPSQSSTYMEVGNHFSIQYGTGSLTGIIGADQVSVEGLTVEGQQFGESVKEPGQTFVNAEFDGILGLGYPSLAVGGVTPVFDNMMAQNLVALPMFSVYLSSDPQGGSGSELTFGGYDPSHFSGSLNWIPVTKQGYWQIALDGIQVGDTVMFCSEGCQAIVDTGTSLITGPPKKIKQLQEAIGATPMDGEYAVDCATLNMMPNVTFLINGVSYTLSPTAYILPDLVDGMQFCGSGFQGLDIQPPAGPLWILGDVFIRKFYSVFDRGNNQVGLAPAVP
Method: (§1) Cathepsin E was isolated from rat spleens as previously described. The fluorogenic substrate for cathepsin E at neutral pH (pH 7.4) was the same as previously reported. The fluorogenic substrate (10 mM) was prepared by dissolving in 100% DMSO and diluting in reaction buffer immediately before use.
Activation of cathepsin E by the selected peptides was determined as previously described. The selected peptides were prepared by in vitro translation or chemical synthesis. A solution containing 20 nM cathepsin E was pre incubated with 20 nM of selected peptides in Selection buffer (50 mM Tris-HCl, 100 mM NaCl, pH 7.4) at 25°C for 10 min. Next, the fluorogenic substrate was added (5 μM) and the mixture was incubated at 37°C for 1 h for the enzyme reaction. The fluorescent reaction product was monitored at 440 nm (excitation at 340 nm) using Infinite 200 (TECAN, Japan). The percent of cathepsin E activation (A) was calculated by: (1) A = 100×(Sf−Bf)/(Cf−Bf) [% activation], where S f was the fluorescence intensity of the cathepsin E reaction in the presence of a selected peptide, C f was the fluorescence intensity of the control in the absence of a selected peptide, and B f was background fluorescence of the solution containing the fluorogenic substrate only.

[2] = target: T1, cathepsin E; experiment: Affinity determination by SPR (Biacore2000); format: binding; settings: cathepsin E immobilized on CM5 chip, peptide 10-40 nM, running buffer pH 7.4, 1:1 Langmuir fit
Method: as §1
The dissociation constant (K d) of each selected peptide with cathepsin E was determined by the SPR method using a Biacore2000 (GE Healthcare, UK). Cathepsin E was immobilized on a CM5 Biacore sensor chip (GE Healthcare, UK) by the general amine coupling method. A small quantity of acetate buffer (50 mM sodium acetate, 100 mM NaCl, pH 4.5) containing cathepsin E (150 μg/mL) was injected into the flow cell for the sample lane. The reference lane was prepared similarly but without cathepsin E. Different concentrations (10, 20, 30, and 40 nM) of the selected peptide candidates, T4 and T11 were injected into both lanes at a flow rate of 20 ul/min to measure the interaction between cathepsin E and each peptide candidate. For all experiments, a neutral pH buffer (50 mM Tris-HCl, 100 mM NaCl, pH 7.4) was used as the running buffer and a solution of 50 mM NaOH was used to remove the peptides. The resulting sensorgram curves were fit to a 1 : 1 Langmuir binding model, and the K d values were calculated using BIA evaluation software (GE Healthcare, UK).

[3] = test system: HeLa cells; experiment: HeLa cell death assay (Cell Counting Kit-F viability, Annexin V-Cy3 apoptosis); format: cell-based
Method: HeLa cells were used for an in vitro cell-based bioassay. Approximately 10,000 HeLa cells were seeded into the wells of a 96-well culture plate (Corning, USA) containing 100 uL of DMEM medium supplemented with 10% FBS and 2% penicillin-streptomycin and incubated overnight at 37°C under 5% CO2. The cells were treated with cathepsin E (77 nM) alone or together with two different concentrations (770 nM, 7.7 μM) of the selected peptide T11 in 100 μL of serum-free Opti-MEM at 37°C for 20 h. After incubation, viable cells were determined with a Cell Counting Kit-F (Dojindo Molecular Technologies, Japan) according to the manufacturer's protocol. Viable cells were identified by their fluorescent emissions intensity using an Infinite 200 (TECAN, Japan) with excitation at 490 nm and emission at 515 nm. To detect apoptotic cells, cells were treated with Annexin V-Cy3 (BioVision, USA) following the manufacturer's protocol. Apoptotic cells were detected by their fluorescent emissions with excitation at 543 nm and emission at 570 nm. To detect caspase-3/7 activity induced by cathepsin E, an Apo-ONE Homogeneous Caspase-3/7 Assay kit (Promega, USA) was used according to the manufacturer's protocol. Activity was detected by fluorescent emissions with excitation at 485 nm and emission at 530 nm. […]

[4] = test system: caspase-3/7 activity in HeLa cells; experiment: Apo-ONE Homogeneous Caspase-3/7 assay in HeLa cells; format: cell-based; settings: for Caspase-3/7 activity: three independent experiments
Method: HeLa cells were used for an in vitro cell-based bioassay. Approximately 10,000 HeLa cells were seeded into the wells of a 96-well culture plate (Corning, USA) containing 100 uL of DMEM medium supplemented with 10% FBS and 2% penicillin-streptomycin and incubated overnight at 37°C under 5% CO2. […] After incubation, viable cells were determined with a Cell Counting Kit-F (Dojindo Molecular Technologies, Japan) according to the manufacturer's protocol. Viable cells were identified by their fluorescent emissions intensity using an Infinite 200 (TECAN, Japan) with excitation at 490 nm and emission at 515 nm. To detect apoptotic cells, cells were treated with Annexin V-Cy3 (BioVision, USA) following the manufacturer's protocol. Apoptotic cells were detected by their fluorescent emissions with excitation at 543 nm and emission at 570 nm. To detect caspase-3/7 activity induced by cathepsin E, an Apo-ONE Homogeneous Caspase-3/7 Assay kit (Promega, USA) was used according to the manufacturer's protocol. Activity was detected by fluorescent emissions with excitation at 485 nm and emission at 530 nm. The cathepsin E and selected peptide concentrations used for apoptosis and caspase assays were the same as those used for cell viability assays.

[5] = target: T2, peptide T4; experiment: SPR
T2 chain: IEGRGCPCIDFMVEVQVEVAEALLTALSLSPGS

[6] = Table 1, cathepsin E activity alone = 100%, pH 7.4, pre-incubation 25°C 10 min, 5 μM substrate, 37°C 1 h, peptide by in vitro translation (italics) or chemical synthesis
[7] = pH 7.4, 37°C 1 h, peptide by in vitro translation (italic) or chemical synthesis
[8] = Table 2, value outside parentheses, pH 7.4, 37°C 1 h, peptide by in vitro translation (italic) or chemical synthesis

- Activity (%) [1, 6]: 145%
Molecule: PGIKPPPCIIIIG [Peptide S10]

- Activity (%) [1, 6]: 160%
Molecule: SPIISHIVGCDPPSCG [Peptide S7]

- Activity (%) [1, 6]: 133%
Molecule: GSPCIGII [Peptide S2]

- Activity (%), value in parentheses [1, 7]: 122%
- Kd ([2]; read-out: dissociation constant (Kd) with cathepsin E): 2 nM
Molecule: CC[C@H](C)[C@H](N)C(=O)N[C@@H](CCC(=O)O)C(=O)NCC(=O)N[C@@H](CCCNC(=N)N)C(=O)NCC(=O)N[C@@H](CS)C(=O)N1CCC[C@H]1C(=O)N[C@@H](CS)C(=O)N[C@H](C(=O)N[C@@H](CC(=O)O)C(=O)N[C@@H](Cc1ccccc1)C(=O)N[C@@H](CCSC)C(=O)N[C@H](C(=O)N[C@@H](CCC(=O)O)C(=O)N[C@H](C(=O)N[C@@H](CCC(N)=O)C(=O)N[C@H](C(=O)N[C@@H](CCC(=O)O)C(=O)N[C@H](C(=O)N[C@@H](C)C(=O)N[C@@H](CCC(=O)O)C(=O)N[C@@H](C)C(=O)N[C@@H](CC(C)C)C(=O)N[C@@H](CC(C)C)C(=O)N[C@H](C(=O)N[C@@H](C)C(=O)N[C@@H](CC(C)C)C(=O)N[C@@H](CO)C(=O)N[C@@H](CC(C)C)C(=O)N[C@@H](CO)C(=O)N1CCC[C@H]1C(=O)NCC(=O)N[C@@H](CO)C(=O)O)[C@@H](C)O)C(C)C)C(C)C)C(C)C)C(C)C)[C@@H](C)CC [Peptide T4] (H-IEGRGCPCIDFMVEVQVEVAEALLTALSLSPGS-OH)

- Activity (%), value in parentheses [1, 7]: 138%
- dissociation constant (Kd) with cathepsin E [2]: too weak to be determined
Molecule: IEGRLLSGGAGACSVRTVDDSFDCG [Peptide T11, paired peptide selected from the third library; chemically synthesized, more than 95% purity]
- percentage of dying cells ([3]; 77 nM cathepsin E with T11 (770 nM, 7.7 μM) versus without T11, 20 h (Figures 3a, 3b)): significantly higher
- effect on cells ([3]; peptide alone (without cathepsin E)): no effect
- Caspase-3/7 activity ([4]; 77 nM cathepsin E + 7.7 μM peptide T11, 24 h): 188%
- Caspase-3/7 activation ([4]; T11 added without cathepsin E): not observed

- Activity (%) [1, 6]: 130%
Molecule: IEGRVGCDFMYVG [Peptide S1]

- Activity (%) [1, 8]: 111%
Molecule: SYKDSCIGGRGSGGGPGGIPGRIGYIG [Peptide T7, peptide selected from the paired peptide (third) library]

- Activity (%) [1, 6]: 168%
Molecule: IGCEERSFPNIIIIIG [Peptide S8]

- Activity (%) [1, 6]: 151%
Molecule: PGIKIIIIG [Peptide S4]

- Activity (%) [1, 8]: 118%
Molecule: SDDKSTTLVEVQVEVAEELWRHYHYLLHG [Peptide T6, peptide selected from the paired peptide (third) library]

- Activity (%) [1, 6]: 140%
Molecule: SGIKVGCDPPSCG [Peptide S9]

- Kd [5]: 2 nM
B1: Cathepsin E (protein)
chain: T1 sequence (P16228 59-398)
- Caspase-3/7 activity ([4]; 77 nM cathepsin E alone, 24 h): 155%
